Measurements from patent US12077503B2, “Substituted cyclic amides and their use as herbicides” (FMC CORPORATION, priority 2015, dated 2024).

Experiments:
Format in all cases: in vivo
[1] = tested on: redroot pigweed (Amaranthus retroflexus); experiment: Test G Pre-Emergence Protocol; conditions: Amaranthus retroflexus, pre-emergence, 312 h, evaluated after 13 days; for pest or weed control at 15.625 g/ha: 15.625 g ai/ha; for pest or weed control at 15.625 g/ha / pest or weed control at 250 g/ha: read-out: Pigweed, Redroot damage rating (100=total damage to plant; 0=no damage to plant); for pest or weed control at 62.5 g/ha: 62.5 g ai/ha, 100=total damage to plant, 0=no damage to plant, read-out: plant damage rating, Pigweed, Redroot; for pest or weed control at 250 g/ha: 250 g ai/ha
In short: (§1)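 Spraying took place one day after sowing, at 15.625, 62.5 or 250 g/ha, using an acetone/water (50:50) spray solution containing 0.5% Tween 20. Plants were kept under glasshouse conditions (24/16 °C, 14 h light, 65% humidity, watered twice daily), and injury was rated 0–100 at day 13.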

[2] = tested on: barnyardgrass (Echinochloa crus-galli); experiment: Test G Pre-Emergence Protocol; conditions: Echinochloa crus-galli, pre-emergence, 312 h, evaluated after 13 days; for pest or weed control at 15.625 g/ha: 15.625 g ai/ha, read-out: Barnyard grass damage rating (100=total damage to plant; 0=no damage to plant); for pest or weed control at 62.5 g/ha: 62.5 g ai/ha, 100=total damage to plant, 0=no damage to plant, read-out: plant damage rating, Barnyardgrass; for pest or weed control at 250 g/ha: 250 g ai/ha, read-out: Barnyardgrass damage rating (100=total damage to plant; 0=no damage to plant)
In short: as §1

[3] = tested on: velvetleaf (Abutilon theophrasti); experiment: Test G Pre-Emergence Protocol; conditions: Abutilon theophrasti, pre-emergence, 312 h, evaluated after 13 days; for pest or weed control at 15.625 g/ha: 15.625 g ai/ha; for pest or weed control at 15.625 g/ha / pest or weed control at 250 g/ha: read-out: Velvetleaf damage rating (100=total damage to plant; 0=no damage to plant); for pest or weed control at 62.5 g/ha: 62.5 g ai/ha, 100=total damage to plant, 0=no damage to plant, read-out: plant damage rating, Velvetleaf; for pest or weed control at 250 g/ha: 250 g ai/ha
In short: as §1

[4] = tested on: giant foxtail (Setaria faberi); experiment: Test G Pre-Emergence Protocol; conditions: Setaria faberi, pre-emergence, 312 h, evaluated after 13 days; for pest or weed control at 15.625 g/ha: 15.625 g ai/ha; for pest or weed control at 15.625 g/ha / pest or weed control at 250 g/ha: read-out: Foxtail, Giant damage rating (100=total damage to plant; 0=no damage to plant); for pest or weed control at 62.5 g/ha: 62.5 g ai/ha, 100=total damage to plant, 0=no damage to plant, read-out: plant damage rating, Foxtail, Giant; for pest or weed control at 250 g/ha: 250 g ai/ha
In short: as §1

[5] = tested on: ivy-leaved morning glory (Ipomoea hederacea); experiment: Test G Pre-Emergence Protocol; conditions: Ipomoea, pre-emergence, 312 h, evaluated after 13 days; for pest or weed control at 15.625 g/ha: 15.625 g ai/ha, read-out: Morning-glory, Ivy-leaved damage rating (100=total damage to plant; 0=no damage to plant); for pest or weed control at 62.5 g/ha: 62.5 g ai/ha, 100=total damage to plant, 0=no damage to plant, read-out: plant damage rating, Morningglory, Ivy-leaved; for pest or weed control at 250 g/ha: 250 g ai/ha, read-out: Morningglory, Ivy-leaved damage rating (100=total damage to plant; 0=no damage to plant)
In short: as §1

corn (Zea mays) [6] = experiment: Test G Pre-Emergence Protocol; conditions: Zea mays, pre-emergence, 312 h, evaluated after 13 days; for plant injury at 15.625 g/ha: 15.625 g ai/ha; for plant injury at 15.625 g/ha / plant injury at 250 g/ha: read-out: Corn damage rating (100=total damage to plant; 0=no damage to plant); for plant injury at 62.5 g/ha: 62.5 g ai/ha, 100=total damage to plant, 0=no damage to plant, read-out: plant damage rating, Corn; for plant injury at 250 g/ha: 250 g ai/ha
In short: as §1

[7] = tested on: redroot pigweed (Amaranthus retroflexus); experiment: Test G Post-Emergence Protocol; conditions: Amaranthus retroflexus, post-emergence, 312 h; for pest or weed control at 15.625 g/ha: 15.625 g ai/ha, evaluated after 13 days (100=total damage to plant; 0=no damage to plant), read-out: Pigweed, Redroot damage rating; for pest or weed control at 62.5 g/ha: 62.5 g ai/ha, read-out: Pigweed, Redroot damage rating (100=total damage to plant; 0=no damage to plant); for pest or weed control at 62.5 g/ha / pest or weed control at 250 g/ha: evaluated after 13 days; for pest or weed control at 250 g/ha: 250 g ai/ha, read-out: damage to plant, Pigweed, Redroot (100=total damage to plant; 0=no damage to plant)
In short: (§2)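 Eight days post-sowing, plants received a spray of test compound (acetone/water 50:50, 0.5% Tween 20) at 15.625, 62.5 or 250 g/ha. Glasshouse regime thereafter: 24/16 °C, 14 h light, 65% humidity. Assessment after 13 days on a 0–100 damage scale.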

[8] = tested on: barnyardgrass (Echinochloa crus-galli); experiment: Test G Post-Emergence Protocol; conditions: Echinochloa crus-galli, post-emergence, 312 h; for pest or weed control at 15.625 g/ha: 15.625 g ai/ha, evaluated after 13 days (100=total damage to plant; 0=no damage to plant), read-out: Barnyardgrass damage rating; for pest or weed control at 62.5 g/ha: 62.5 g ai/ha, read-out: Barnyardgrass damage rating (100=total damage to plant; 0=no damage to plant); for pest or weed control at 62.5 g/ha / pest or weed control at 250 g/ha: evaluated after 13 days; for pest or weed control at 250 g/ha: 250 g ai/ha, read-out: damage to plant, Barnyardgrass (100=total damage to plant; 0=no damage to plant)
In short: as §2

[9] = tested on: velvetleaf (Abutilon theophrasti); experiment: Test G Post-Emergence Protocol; conditions: Abutilon theophrasti, post-emergence, 312 h; for pest or weed control at 15.625 g/ha: 15.625 g ai/ha, evaluated after 13 days (100=total damage to plant; 0=no damage to plant), read-out: Velvetleaf damage rating; for pest or weed control at 62.5 g/ha: 62.5 g ai/ha, read-out: Velvetleaf damage rating (100=total damage to plant; 0=no damage to plant); for pest or weed control at 62.5 g/ha / pest or weed control at 250 g/ha: evaluated after 13 days; for pest or weed control at 250 g/ha: 250 g ai/ha, read-out: damage to plant, Velvetleaf (100=total damage to plant; 0=no damage to plant)
In short: as §2

[10] = tested on: giant foxtail (Setaria faberi); experiment: Test G Post-Emergence Protocol; conditions: Setaria faberi, post-emergence, 312 h; for pest or weed control at 15.625 g/ha: 15.625 g ai/ha, evaluated after 13 days (100=total damage to plant; 0=no damage to plant), read-out: Foxtail, Giant damage rating; for pest or weed control at 62.5 g/ha: 62.5 g ai/ha, read-out: Foxtail, Giant damage rating (100=total damage to plant; 0=no damage to plant); for pest or weed control at 62.5 g/ha / pest or weed control at 250 g/ha: evaluated after 13 days; for pest or weed control at 250 g/ha: 250 g ai/ha, read-out: damage to plant, Foxtail, Giant (100=total damage to plant; 0=no damage to plant)
In short: as §2

[11] = tested on: ivy-leaved morning glory (Ipomoea hederacea); experiment: Test G Post-Emergence Protocol; conditions: Ipomoea, post-emergence, 312 h; for pest or weed control at 15.625 g/ha: 15.625 g ai/ha, evaluated after 13 days (100=total damage to plant; 0=no damage to plant), read-out: Morningglory, Ivy-leaved damage rating; for pest or weed control at 62.5 g/ha: 62.5 g ai/ha, read-out: Morningglory, Ivy-leaved damage rating (100=total damage to plant; 0=no damage to plant); for pest or weed control at 62.5 g/ha / pest or weed control at 250 g/ha: evaluated after 13 days; for pest or weed control at 250 g/ha: 250 g ai/ha, read-out: damage to plant, Morningglory, Ivy-leaved (100=total damage to plant; 0=no damage to plant)
In short: as §2

corn (Zea mays) [12] = experiment: Test G Post-Emergence Protocol; conditions: Zea mays, post-emergence, 312 h; for plant injury at 15.625 g/ha: 15.625 g ai/ha, evaluated after 13 days (100=total damage to plant; 0=no damage to plant), read-out: Corn damage rating; for plant injury at 62.5 g/ha: 62.5 g ai/ha, read-out: Corn damage rating (100=total damage to plant; 0=no damage to plant); for plant injury at 62.5 g/ha / plant injury at 250 g/ha: evaluated after 13 days; for plant injury at 250 g/ha: 250 g ai/ha, read-out: damage to plant, Corn (100=total damage to plant; 0=no damage to plant)
In short: as §2

| Compound | pest or weed control at 15.625 g/ha [1] | pest or weed control at 62.5 g/ha [1] | pest or weed control at 250 g/ha [1] | pest or weed control at 15.625 g/ha [2] | pest or weed control at 62.5 g/ha [2] | pest or weed control at 250 g/ha [2] | pest or weed control at 15.625 g/ha [3] | pest or weed control at 62.5 g/ha [3] | pest or weed control at 250 g/ha [3] | pest or weed control at 15.625 g/ha [4] | pest or weed control at 62.5 g/ha [4] | pest or weed control at 250 g/ha [4] | pest or weed control at 15.625 g/ha [5] | pest or weed control at 62.5 g/ha [5] | pest or weed control at 250 g/ha [5] | plant injury at 15.625 g/ha (corn (Zea mays) [6]) | plant injury at 62.5 g/ha (corn (Zea mays) [6]) | plant injury at 250 g/ha (corn (Zea mays) [6]) | pest or weed control at 15.625 g/ha [7] | pest or weed control at 62.5 g/ha [7] | also measured |
| --- | --- | --- | --- | --- | --- | --- | --- | --- | --- | --- | --- | --- | --- | --- | --- | --- | --- | --- | --- | --- | --- |
| Cc1cc(Cl)ccc1NC(=O)[C@H]1C(=O)N(C)C[C@@H]1c1ccc(C(F)(F)F)cc1 (racemic) [Compound 1442] | 0% | 0% | 10% | 0% | 0% | 0% | 0% | 0% | 10% | 0% | 0% | 30% | 0% | 0% | 0% | 0% | 0% | 0% | 0% | 0% | pest or weed control at 250 g/ha [7]: 0%; pest or weed control at 15.625 g/ha [8]: 0%; pest or weed control at 62.5 g/ha [8]: 0%; pest or weed control at 250 g/ha [8]: 0%; pest or weed control at 15.625 g/ha [9]: 0%; pest or weed control at 62.5 g/ha [9]: 0%; pest or weed control at 250 g/ha [9]: 0%; pest or weed control at 15.625 g/ha [10]: 0%; pest or weed control at 62.5 g/ha [10]: 0%; pest or weed control at 250 g/ha [10]: 0%; pest or weed control at 15.625 g/ha [11]: 0%; pest or weed control at 62.5 g/ha [11]: 0%; pest or weed control at 250 g/ha [11]: 0%; plant injury at 15.625 g/ha (corn (Zea mays) [12]): 0%; plant injury at 62.5 g/ha (corn (Zea mays) [12]): 0%; plant injury at 250 g/ha (corn (Zea mays) [12]): 0% |
| COc1ccc(CNC(=O)[C@H]2C(=O)N(C)C[C@@H]2c2ccc(C(F)(F)F)cc2)c(OC)c1 (racemic) [Compound 1479] | 0% | 0% | 0% | 0% | 0% | 10% | 0% | 0% | 10% | 0% | 20% | 20% | 0% | 0% | 0% | 0% | 0% | 0% | 0% | 0% | pest or weed control at 250 g/ha [7]: 20%; pest or weed control at 15.625 g/ha [8]: 0%; pest or weed control at 62.5 g/ha [8]: 20%; pest or weed control at 250 g/ha [8]: 20%; pest or weed control at 15.625 g/ha [9]: 0%; pest or weed control at 62.5 g/ha [9]: 0%; pest or weed control at 250 g/ha [9]: 0%; pest or weed control at 15.625 g/ha [10]: 0%; pest or weed control at 62.5 g/ha [10]: 20%; pest or weed control at 250 g/ha [10]: 0%; pest or weed control at 15.625 g/ha [11]: 0%; pest or weed control at 62.5 g/ha [11]: 0%; pest or weed control at 250 g/ha [11]: 0%; plant injury at 15.625 g/ha (corn (Zea mays) [12]): 10%; plant injury at 62.5 g/ha (corn (Zea mays) [12]): 10%; plant injury at 250 g/ha (corn (Zea mays) [12]): 10% |
